The values that follow come from patent US12673039B2, “Methods of inducing autophagy using coumarin derivatives and related compounds” (Buck Institute for Research on Aging, priority 2019, dated 2026).

The test system of this test is C. elegans. The test can be described thus: C. elegans lifespan assays. Format: in vivo. From the text:
FIG. 21, panels A-F: AIC106 prevents neuronal loss and proteotoxicity in strains expressing human neurotoxic proteins. Panel A) Dopaminergic neuronal loss in day-5 UA44 worms was quantified by scoring percentage of worms with intact 4-CEP neurons in AIC106 and DMSO-control treatment. [N=3 independent experiments (mean±SD). ***p<0.001, by one-way ANOVA with Tukey's multiple comparisons test]. Motor function in (panel B) day-7 NL5901 and (panel C) day-5 CL2006 worms were quantified by scoring number of thrashes for an individual worm over the period of 30 seconds (dots) in AIC106 and DMSO-control treatment. [N=3 independent experiments (mean±SD). **p<0.01, ***p<0.001 and ****p<0.0001, by one-way ANOVA with Tukey's multiple comparisons test]. Panel D) Motor function in temperature sensitive (enhanced paralysis at 25° C.) CL4176 worms was determined by scoring percent of worms paralyzed in AIC106 and DMSO-control treatment. [N=3 independent experiments (mean±SD). **p<0.01, by one-way ANOVA with Tukey's multiple comparisons test]. Panel E) Lifespan analysis of CL6049 worms exposed to AIC106 and DMSO-control. [N=2 independent experiments, Treatment (median survival in days, P value compared to DMSO-control): DMSO-control (12), AIC106 10 μM (15, p<0.01), 20 μM (15, p<0.0001) and 50 μM (17, p<0.0001). P-value calculated by Logrank test]. Panel F) Effect of AIC106 on polyQ40 aggregation was determined by scoring number of polyQ40-YFP fluorescent puncta in an individual AM141 worm treated with AIC106 and DMSO-control. [N=3 independent experiments (mean±SD). *p<0.05 and ***p<0.001, by one-way ANOVA with Tukey's multiple comparisons test].
FIG. 27, panels A-C: AIC106 induces mitophagy and increases lifespan. Panel A) Relative fold change in mRNA of key mitophagy genes including dct-1, pink-1 and pdr-1 was quantified by qRT-PCR after DMSO-control and AIC106 24 hours treatment in young adult N2 and hlh-30(tm1978) mutants. [N=3 independent experiments (mean±SD). **p<0.01 and ****p<0.0001, by two-way ANOVA with Sidak's multiple comparisons test]. Short exposure (1 week) of AIC106 increased survival of (panel B) wild type N2: DMSO-control (median-12 days), AIC106 50 μM (median-15 days, p<0.0001) and (panel C) mitophagy deficient pdr-1(tm598): mutant DMSO-control (median-15 days), AIC106 50 μM (median −17 days, p<0.001)]. [N=3 independent experiments, P value compared to respective DMSO-control and calculated by Logrank test).
FIG. 28, panels A-B: AIC106 prevents neuronal loss and proteotoxicity in strains expressing human neurotoxic proteins. Panel A) Motor function in day-7 NL5901 were quantified by scoring number of thrashes for an individual worm over the period of 30 seconds (dots) in AIC106 and DMSO-control treatment. [N=3 independent experiments (mean±SD). ***p<0.001 and ****p<0.0001, by one-way ANOVA with Tukey's multiple comparisons test]. Panel B) Lifespan analysis of CL6049 worms exposed to AIC106 and DMSO-control. [N=2 independent experiments, Treatment (median survival in days, P value compared to DMSO-control): DMSO-control RNAi (18), CL6049-AIC106 control RNAi (21, p<0.0001), CL6049-AIC106 hlh-30 RNAi (17, p<0.0001) and 50 μM (17, p<0.0001). P-value calculated by Logrank test].
Lifespan assays for CL6049 and pdr-1(tm598) strains was performed after treating day-1 adult worms with DMSO or AIC106. A synchronized 35-40 young day-1 adult worms were transferred to each 35 mm compound-treated plates supplemented with FuDR containing control DMSO or AIC106 and kept at 20° C. Worms were scored as alive, dead, or lost every alternate day. […] Worms that died from causes other than aging, such as sticking to the plate walls, internal hatching of eggs (bagging), or gonadal extrusion were censored as lost. Worms were transferred to fresh-drugged plates every 3-5 days. All lifespan experiments were performed at 20° C.

Take `O=c1oc2c3c4c(cc2c2c1CCC2)CCCN4CCC3` [C1, 2,3,6,7,10,11-Hexahydro-1H,5H-cyclopenta(3,4)(1)benzopyrano(6,7,8-ij)quinolizin-12(9H)-one]: the median survival runs as follows: (CL6049, 50 μM as listed in FIG. 28 panel B legend) 17 days; (CL6049, control RNAi, DMSO-control RNAi 18) 21 days; (CL6049, hlh-30 RNAi) 17 days; (CL6049 worms, 10 μM, DMSO-control 12) 15 days; (CL6049 worms, 20 μM, DMSO-control 12) 15 days; (CL6049 worms, 50 μM, DMSO-control 12) 17 days. Further, the “human TDP-43 toxicity (survival)” value (CL6049 worms, dose dependent) is listed as “protected against human TDP-43 toxicity”. The lifespan result (short treatment (1 week post-development)) was “significant increase in lifespan of both wild type N2 and pdr-1 mutant”.
